Laboratory results from patent US20230226231A1, “CONJUGATED AND LABELLED APELIN, PREPARATION AND USES THEREOF” (UNIVERSITE D'AIX MARSEILLE, priority 2020, published 2023).

Legend:
[1] = test system: Human colon adenocarcinoma xenografts (T84 cells); experiment: MicroPET imaging in ectopic mouse model of human colon adenocarcinoma, baseline and blocking; type: in vivo, mice
Method: Human colon adenocarcinoma xenografts were established by subcutaneous injections of 1×10^6 T84 cells into 6-week-old male Swiss nude mice (Charles River) under 2% isoflurane anesthesia.
PET images were acquired 1 h after IV injection on a Mediso NanoPET/CT under 2% isoflurane anesthesia.

APJ = biological target: T1, APJ (Homo sapiens, UniProt P35414); experiment: Autoradiography with blocking strategy on T84 cells; type: cell-based; details: 100-fold excess of unconjugated Apelin13(F13A)
T1 construct: host or cells: T84 human colon adenocarcinoma cells
T1 sequence (P35414 1-380): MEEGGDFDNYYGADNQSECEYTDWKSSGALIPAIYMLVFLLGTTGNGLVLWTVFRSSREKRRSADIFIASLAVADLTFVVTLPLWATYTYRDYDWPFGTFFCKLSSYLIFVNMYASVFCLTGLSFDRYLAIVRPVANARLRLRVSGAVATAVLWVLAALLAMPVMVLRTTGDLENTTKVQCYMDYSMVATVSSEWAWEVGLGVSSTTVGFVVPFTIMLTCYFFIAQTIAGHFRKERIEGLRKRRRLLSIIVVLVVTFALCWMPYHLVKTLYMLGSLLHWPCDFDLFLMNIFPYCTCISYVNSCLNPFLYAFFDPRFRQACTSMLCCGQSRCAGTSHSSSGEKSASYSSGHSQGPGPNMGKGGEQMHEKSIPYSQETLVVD
Method: A blocking strategy was performed on cells expressing the highest level of APJ. This strategy consists in adding a large excess (100-fold) of unconjugated peptide (Apelin13(F13A)) before adding inventors' product of interest. Unspecific tracer was eliminated by several washes. The remaining activity, considered as specifically bound to the target, was evaluated by autoradiography.
T84 cell line (EuroBioDev) was cultivated in DMEM-F12/Glutamax medium complemented with 10% fetal bovine serum decomplemented and 1% antimycotic-antibiotic mix. Cell lines were maintained in a humidified 5% CO2 incubator at 37° C.

[2] = Hydrophilicity, water-octanol partition/distribution coefficient method; type: physicochemical; details: 1-octanol / phosphate-buffered saline pH 7.4
Method: Hydrophilicity of [^67Ga]Ga-AP747 was assessed by the water-octanol partition/distribution coefficient method. In a centrifuge tube, 500 μL of 1-octanol was added to 500 μL of phosphate-buffered saline (pH 7.4) containing the radiolabeled peptide (50 kBq). After equilibrium, the solution was vigorously stirred for 5 min at room temperature and subsequently centrifuged (4000 rpm, 5 min) to yield two immiscible layers. Aliquots of 100 μL were taken from each layer and the radioactivity in the samples was determined by a gamma counter (Perkin Elmer, Waltham, Mass., USA).

APJ receptor, T84 cells = biological target: T2, APJ receptor, T84 cells (Homo sapiens, UniProt P35414); experiment: In vitro internalization study in T84 cells; type: cell-based
T2 construct: host or cells: T84 human colon adenocarcinoma cells
T2 sequence (P35414 1-380): T1 sequence (P35414 1-380)
Method: (§1) T84 cells were cultured as described in saturation binding experiments above.
Three minutes before the end of the incubation time, internalization was stopped on ice and the supernatant was removed. Internalization was then stopped by eliminating the supernatant and each well was washed with 3×250 μL of ice-cold PBS. The membrane-bound fraction was retrieved in 2×250 μL sodium acetate buffer (20 mM, pH 5) for 5 min. Finally, cells were treated with 500 μL of NaOH (1 M). The radioactivity of the membrane-bound fraction and the internalized fraction was measured in a gamma counter. The experiment was performed twice. To also verify receptor specificity, blocking experiments were performed by using 1 μM of apelin-13.

T84 cells = experiment: In vitro efflux study on T84 cells; type: cell-based, human
Method: as §1
Three minutes before the end of the incubation time, internalization was stopped on ice and the supernatant was removed. Each well was washed with 1 mL of ice-cold PBS. The membrane-bound fraction was retrieved in 2 mL sodium acetate buffer (20 mM, pH 5) for 2 min, each well was rinsed a second time with 1 mL ice-cold PBS and fresh culture medium was added. At each time point (10, 30, 60 and 120 minutes), the efflux was stopped by collecting the medium and washing cells twice with ice-cold PBS. Finally, cells were treated with NaOH (1 M). The radioactivity of the collected culture medium supernatant, the PBS wash fractions, and the total internalized fraction was measured in a gamma counter. The experiment was performed twice.

[3] = Stability of radiolabelled tracer in human serum; type: in vitro ADME
Method: Determination of radiochemical purity was done by radio-thin-layer chromatography (ITLC-SG) and was performed using a Ray-test miniGITA radio-TLC scanner detector (Straubenhardt, Ge) (eluents, 1:1 [v/v] mixture of 1M aqueous ammonium acetate solution and methanol and also in Trisodium Citrate 0,1M). Evaluation of ^68Ga-NODAGA-Apelin13(F13A) stability was performed in human serum at 60 and 120 min after radiosynthesis.

[4] = MicroPET biodistribution study in healthy mice; type: in vivo; details: IV injection, up to 2 h
Method: For biodistribution study in healthy mice (n=3), images were continuously acquired just after ^68Ga-NODAGA-Apelin13(F13A) IV injection with 5-6 MBq and recorded up to 2 h post injection on a Mediso NanoPET/CT under 2% isoflurane anesthesia.
(§2) Quantitative region-of-interest (ROI) analysis of the PET images was performed on attenuation- and decay-corrected PET images using InVicro—VivoQuant software and tissue uptake values are presented as an ischemic muscle to contralateral muscle ratio and as a percentage of the injected dose per gram of tissue (% ID/g) which was determined by decay correction for each sample normalized to a standard of known weight, which was representative of the injected dose.

Matrigel plug = experiment: MicroPET imaging in Matrigel mouse model; type: in vivo, mice
Method: These mice were also subcutaneously implanted with Matrigel (Dutscher) supplemented with 10% fetal bovine serum under 2% isoflurane anesthesia.
(§3) On hindlimb ischemia mouse model (n=8) and Matrigel mouse model (n=7) on day 1, 3, 7, 10, 13 and 21 post-surgery, mice were IV injected with 5-10 MBq of ^68Ga-NODAGA-Apelin13(F13A) under 2% isoflurane anesthesia.
(§4) PET images were acquired 60 min after IV injection on a Mediso Nanoscan PET/CT under 2% isoflurane anesthesia. On hindlimb ischemia mouse model and on day 1, 3, 7, 10, 13 and 21 post-surgery, mice were IV injected with 5-10 MBq of [^68Ga]Ga-NODAGA-RGD2 injection under 2% isoflurane anesthesia. PET images were acquired 60 min after IV injection on a Mediso Nanoscan PET/CT under 2% isoflurane anesthesia.
as §2

ischemic limb = experiment: MicroPET imaging in mouse model of hindlimb ischemia; type: in vivo, mice
Method: Unilateral hindlimb ischemia was performed on 9-week-old male Swiss mice (Janvier Labs) after femoral artery excision under 2% isoflurane anesthesia. LASER Doppler perfusion imaging (Perimed, Craponne, France) was used to assess revascularization from day 0 to day 21 after surgery. Perfusion results are expressed as a ratio of ischemic to non-ischemic limb blood flow. Hindlimb ischemic damage was quantified on Days 1, 3, 7, 10, 13 and 21.
as §3, §4, §2

[5] = PET signal ratio on day 7, corrected with non-ischemic limb

For CSCC[C@H](NC(=O)[C@@H]1CCCN1C(=O)CNC(=O)[C@H](CCCCN)NC(=O)[C@H](Cc1c[nH]cn1)NC(=O)[C@H](CO)NC(=O)[C@H](CC(C)C)NC(=O)[C@H](CCCNC(=N)N)NC(=O)[C@@H]1CCCN1C(=O)[C@H](CCCNC(=N)N)NC(=O)[C@@H](N)CCC(N)=O)C(=O)N1CCC[C@H]1C(=O)N[C@@H](C)C(=O)O [Apelin13(F13A), reference compound], the “tolerance of cold peptide in in vivo blocking experiments” value ([1]; due to cardiovascular effects of Apelin) was “bad tolerance”.
For “AP747: AP747 corresponds to NODAGA-Apelin13(F13A); used radiolabelled in the autoradiography”, the “remaining activity recorded by autoradiography in blocking condition compared to classic conditions” value (APJ) was “significantly reduced”.
In the case of “[^67Ga]Ga-AP747: NODAGA-Apelin13(F13A) radiolabelled with gallium-67, used for in vitro binding, internalization and efflux studies”, the “log D7.4” value [2] is reported as −3.03±0.02, the “internalized fraction of the cell associated radioactivity (maximum)” value (APJ receptor, T84 cells; 37° C., at 60 min) is reported as 79.7±7.3% and the “receptor specific membrane-bound fraction” value (APJ receptor, T84 cells; at any time point (10, 30, 60 min)) is reported as less than 5%. For the same compound, the “efflux: fraction of the total binding externalized” value (T84 cells; 10 minutes post-internalization) was 66.7±1.7% and the “efflux: fraction of the total binding externalized” value (T84 cells; at 2 h) was 81.2±2.9%.
In the case of “[^68Ga]Ga-NODAGA-Apelin13(F13A): Apelin-13(F13A) peptide (SEQ ID NO: 5) conjugated to chelator NODAGA and radiolabelled with gallium-68; PET tracer of APJ”, the “radiochemical purity after incubation in human serum” value ([3]; human serum, until two hours post-incubation, n=3) is reported as “didn't lead to significant tampering”, the stability in serum ([3]; serum) is reported as “up to 2 hours” and the “excretion and organ accumulation (PET signal quantification in organs)” value ([4]; n=3) is reported as “fast and mainly urinary excretion without noticeable accumulation in liver, lungs or brain”. The “excretion and organ accumulation (PET signal quantification in organs)” value ([4]; n=3, listed as (F13A)Apelin-NODAGA-^68Ga) was “Rapid urinary and hepatic elimination”, the “PET signal in Matrigel compared with [68Ga]Ga-NODAGA-RGD2, globally over experiment period” value (Matrigel plug; day 1 to day 21) was “significantly superior” and the “accumulation in Matrigel plug compared with [68Ga]Ga-NODAGA-RGD2” value (Matrigel plug; day 10, day 13 and day 21, PET 60 min after IV injection) was “significantly higher”. For the same compound, the “relation of PET signal in ischemic limb to day-input function (LASER Doppler Day7/Day0)” value (ischemic limb; PET signal on day 7, corrected with non-ischemic limb) was “not linked”, the “correlation of PET signal in ischemic limb with LASER-Doppler signal at day of surgery” value (ischemic limb; [5]) was “significantly negatively correlated” and the “relation of PET signal in ischemic limb to reperfusion (LASER-Doppler Day 21/Day 0)” value (ischemic limb; [5]) was “more important when reperfusion is longer”. For the same compound, the “PET signal in ischemic limb compared with [68Ga]Ga-NODAGA-RGD2” value (ischemic limb; at peak) was “notably better”, the “day of peak PET signal in ischemic limb” value (ischemic limb; ischemic limb corrected by non-ischemic limb, post-surgery) was 7 days and the “partial blocking of PET signal in in vivo blocking experiments” value ([1]; pre-saturation with cold Apelin13(F13A), angiogenic and tumoral models) was “about 50%”.
